Consider three compounds from publication PMC4827093, “Proximal ADP-ribose Hydrolysis in Trypanosomatids is Catalyzed by a Macrodomain” (Scientific Reports, 2016).

In experiment [1] the target is T1, TbMDO (Trypanosoma brucei MacroD-like protein) (Trypanosoma brucei, UniProt C9ZP98).
T1 construct: gene TbgDal_V3640; full-length, codon-optimized synthetic cDNA, pNH-TrxT vector, E. coli BL21(DE3), fusion tags cut with TEV protease; crystal structures comprise residues 11-261
T1 sequence (C9ZP98 1-265): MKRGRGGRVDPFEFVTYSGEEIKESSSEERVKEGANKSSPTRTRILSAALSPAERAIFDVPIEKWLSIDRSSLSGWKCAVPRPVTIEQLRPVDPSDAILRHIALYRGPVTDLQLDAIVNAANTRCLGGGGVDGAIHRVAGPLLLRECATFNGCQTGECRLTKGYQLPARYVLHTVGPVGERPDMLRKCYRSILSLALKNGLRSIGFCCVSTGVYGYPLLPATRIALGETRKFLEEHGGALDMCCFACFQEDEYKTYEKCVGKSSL
The experiment can be described thus: ESI-TOF mass spectrometry of hydrolysis products. It counts as biochemical. Particulars: 0.5 mM 2′/3′-O-acetyl-ADP-ribose, 50 μM protein, 22 °C, 4 h; isomer mixture.

Experiment [2] deals with T2, TcMDO (Trypanosoma cruzi MacroD-like protein) (Trypanosoma cruzi, UniProt Q4DQ03).
T2 construct: gene Tc00.1047053509179.20; full-length, codon-optimized synthetic cDNA, pNH-TrxT vector, E. coli BL21(DE3), fusion tags cut with TEV protease; crystal structure comprises residues 13-257
T2 sequence (Q4DQ03 1-267): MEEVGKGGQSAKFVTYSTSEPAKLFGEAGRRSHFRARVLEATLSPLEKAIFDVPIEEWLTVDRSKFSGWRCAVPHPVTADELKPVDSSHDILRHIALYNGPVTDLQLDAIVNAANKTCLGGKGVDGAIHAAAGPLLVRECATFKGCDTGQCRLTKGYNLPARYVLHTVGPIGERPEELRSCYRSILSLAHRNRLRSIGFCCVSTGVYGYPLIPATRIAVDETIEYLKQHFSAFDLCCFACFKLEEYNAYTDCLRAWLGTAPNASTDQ
The experiment can be described thus: ESI-TOF mass spectrometry of hydrolysis products. In kind it is biochemical. Particulars: 0.5 mM 2′/3′-O-acetyl-ADP-ribose, 50 μM protein, 22 °C, 4 h; isomer mixture.

The target of experiment [3] is T1, TbMDO (Trypanosoma brucei MacroD-like protein). The experiment is described as follows: isothermal titration calorimetry. It counts as binding. On the technique in general: In ITC the heat of successive injections is recorded.
Experiment [4] concerns the target T2, TcMDO (Trypanosoma cruzi MacroD-like protein). The experiment can be described thus: isothermal titration calorimetry. In kind it is binding.
The mark [5] stands for this setting: pH 7.5, 50 mM HEPES, 250 mM NaCl, 0.5 mM TCEP, 25 °C, three titrations, same data as the Ka row, read-out: affinities.

Read-outs that look alike come from different tables or passages of the source.

In the case of `CC(=O)O[C@H]1C(O)O[C@H](COP(=O)(O)OP(=O)(O)OC[C@H]2O[C@@H](n3cnc4c(N)ncnc43)[C@H](O)[C@@H]2O)[C@H]1O` (some centres unmarked) [O-acetyl-ADP-ribose], the “ESI-TOF mass spectrometry of hydrolysis products” value in experiment [1] and in experiment [2] was “Incubation of O-acetyl-ADP-ribose with both proteins resulted in the decrease of the mass” in each case.
For `Nc1ncnc2c1ncn2[C@@H]1O[C@H](COP(=O)(O)OP(=O)(O)OC[C@H]2OC(O)[C@H](O)[C@@H]2O)[C@@H](O)[C@H]1O` (some centres unmarked) [ADP-ribose], the Kd in experiment [3] (setting [5]) was 1.3 µM; in experiment [4] (setting [5]) it was 0.2 µM.
As for `Nc1ncnc2c1ncn2[C@@H]1O[C@H](COP(=O)(O)OP(=O)(O)O)[C@@H](O)[C@H]1O` [ADP], the Kd was 1850 µM in experiment [3] (read-out: K (converted)), 1900 µM in experiment [3] (read-out: KD), 820 µM in experiment [4] (read-out: K (converted)) and 800 µM in experiment [4] (read-out: KD).
